Reference: US11708348B2, “Protease inhibitors for treatment of coronavirus infections” (The Scripps Research Institute, priority 2021, dated 2023)

Test system: SARS-CoV-2 strain USA-WA1/2020
Experiment: microbe, parasite or virus in culture
Format: cell-based
Details: Severe acute respiratory syndrome coronavirus 2, HeLa-ACE2, 24 h, HeLa-ACE2 cells, SARS-CoV-2 infection, 24 h; cells given as a bound; read-out: EC50, uM (Hela)

`CC(C)C[C@H](NC(=O)O[C@@H]1CCOC1)C(=O)N[C@@H](C[C@@H]1CCNC1=O)C(=O)COc1c(F)c(F)cc(F)c1F` [Compound 126, (R)-tetrahydrofuran-3-yl ((S)-4-methyl-1-oxo-1-(((S)-3-oxo-1-((S)-2-oxopyrrolidin-3-yl)-4-(2,3,5,6-tetrafluorophenoxy)butan-2-yl)amino)pentan-2-yl)carbamate] was tested. Which EC50 did it give?
The EC50 was greater than 1 µM.

Same assay, conditions: Severe acute respiratory syndrome coronavirus 2, HeLa-ACE2, 24 h, HeLa-ACE2 cells, SARS-CoV-2 infection, 24 h; class symbols; read-out: EC50, uM (Hela)

Which EC50 does the source give for `Cc1cccc(C)c1NC(=O)C(=O)N[C@@H](CC(C)C)C(=O)N[C@@H](C[C@@H]1CCNC1=O)C(=O)COC(F)(F)F` [Compound 152, N1-(2,6-dimethylphenyl)-N2-((S)-4-methyl-1-oxo-1-(((S)-3-oxo-1-((S)-2-oxopyrrolidin-3-yl)-4-(trifluoromethoxy)butan-2-yl)amino)pentan-2-yl)oxalamide] here?
The EC50 was less than 0.05 µM.

How did the EC50 turn out when `CC(C)C[C@H](NC(=O)C1(C)CCCO1)C(=O)N[C@@H](C[C@@H]1CCNC1=O)C(=O)COC(F)(F)F` (stereo partly drawn) [Compound 214, 2-methyl-N-((S)-4-methyl-1-oxo-1-(((S)-3-oxo-1-((S)-2-oxopyrrolidin-3-yl)-4-(trifluoromethoxy)butan-2-yl)amino)pentan-2-yl)tetrahydrofuran-2-carboxamide] was run?
Its EC50 is 0.05 to 0.2 µM.

Which EC50 does the source give for `CC(C)C[C@H](NC(=O)C(=O)NC1CCC(F)(F)CC1)C(=O)N[C@@H](C[C@@H]1CCNC1=O)C(=O)COc1c(F)c(F)cc(F)c1F` [Compound 151, N^1-(4,4-difluorocyclohexyl)-N^2—((S)-4-methyl-1-oxo-1-(((S)-3-oxo-1-((S)-2-oxopyrrolidin-3-yl)-4-(2,3,5,6-tetrafluorophenoxy)butan-2-yl)amino)pentan-2-yl)oxalamide] here?
Its EC50 is 0.05 to 0.2 µM.

With `O=C(Nc1ccccc1F)C(=O)N1C[C@@H]2CCC[C@@H]2[C@H]1C(=O)N[C@@H](C[C@@H]1CCNC1=O)C(=O)COC(F)(F)F` [Compound 256, (1S,3aR,6aS)-2-(2-((2-fluorophenyl)amino)-2-oxoacetyl)-N—((S)-3-oxo-1-((S)-2-oxopyrrolidin-3-yl)-4-(trifluoromethoxy)butan-2-yl)octahydrocyclopenta[c]pyrrole-1-carboxamide] as the compound, how does the EC50 read?
Its EC50 is less than 0.05 µM.

Which EC50 does the source give for `COc1cccc(F)c1NC(=O)C(=O)N[C@@H](CC(C)C)C(=O)N[C@@H](C[C@@H]1CCNC1=O)C(=O)COC(F)(F)F` [Compound 166, N1-(2-fluoro-6-methoxyphenyl)-N2-((S)-4-methyl-1-oxo-1-(((S)-3-oxo-1-((S)-2-oxopyrrolidin-3-yl)-4-(trifluoromethoxy)butan-2-yl)amino)pentan-2-yl)oxalamide] here?
The EC50 was less than 0.05 µM.

`CC(C)C[C@H](NC(=O)C(=O)Nc1cccc2ccccc12)C(=O)N[C@@H](C[C@@H]1CCNC1=O)C(=O)COc1c(F)c(F)cc(F)c1F` [Compound 51, N1-((S)-4-methyl-1-oxo-1-(((S)-3-oxo-1-((S)-2-oxopyrrolidin-3-yl)-4-(2,3,5,6-tetrafluorophenoxy)butan-2-yl)amino)pentan-2-yl)-N2-(naphthalen-1-yl)oxalamide] was tested. Which EC50 did it give?
The EC50 was less than 0.05 µM.

`CC(C)C[C@H](NC(=O)C(=O)NC(C)(C)C)C(=O)N[C@@H](C[C@@H]1CCNC1=O)C(=O)COc1c(F)c(F)cc(F)c1F` [Compound 100, N1-(tert-butyl)-N2-((S)-4-methyl-1-oxo-1-(((S)-3-oxo-1-((S)-2-oxopyrrolidin-3-yl)-4-(2,3,5,6-tetrafluorophenoxy)butan-2-yl)amino)pentan-2-yl)oxalamide] was tested. Which EC50 did it give?
The EC50 was 0.05 to 0.2 µM.

Which EC50 does the source give for `CC(C)C[C@H](NC(=O)C(C)(C)O)C(=O)N[C@@H](C[C@@H]1CCNC1=O)C(=O)COC(F)(F)F` [Compound 353, (S)-2-(2-hydroxy-2-methylpropanamido)-4-methyl-N-((S)-3-oxo-1-((S)-2-oxopyrrolidin-3-yl)-4-(trifluoromethoxy)butan-2-yl)pentanamide] here?
The EC50 was 0.05 to 0.2 µM.

Same assay, conditions: Severe acute respiratory syndrome coronavirus 2, HeLa-ACE2, 24 h, HeLa-ACE2 cells, SARS-CoV-2 infection, 24 h; read-out: EC50, uM (Hela)

How did the EC50 turn out when `O=C1NCC[C@H]1C[C@H](NC(=O)[C@@H]1CC2(CC2)CN1C(=O)[C@@H]1C[C@H]1C(F)(F)F)C(=O)COC(F)(F)F` [Compound 718, (S)-N-((S)-3-oxo-1-((S)-2-oxopyrrolidin-3-yl)-4-(trifluoromethoxy)butan-2-yl)-5-((1R,2R)-2-(trifluoromethyl)cyclopropane-1-carbonyl)-5-azaspiro[2.4]heptane-6-carboxamide] was run?
Its EC50 is less than 0.05 µM.

For `O=C(NC1CC1)C(=O)N[C@@H](CC1CC1)C(=O)N[C@@H](C[C@@H]1CCNC1=O)C(=O)COC(F)(F)F` [Compound 586, N1-cyclopropyl-N2-((S)-3-cyclopropyl-1-oxo-1-(((S)-3-oxo-1-((S)-2-oxopyrrolidin-3-yl)-4-(trifluoromethoxy)butan-2-yl)amino)propan-2-yl)oxalamide], which EC50 is on record?
The EC50 was less than 0.05 µM.

For `CC(C)C[C@H](NC(=O)[C@H](O)c1ccccc1F)C(=O)N[C@@H](C[C@@H]1CCNC1=O)C(=O)COC(F)(F)F` [Compound 408, (S)-2-((R)-2-(2-fluorophenyl)-2-hydroxyacetamido)-4-methyl-N-((S)-3-oxo-1-((S)-2-oxopyrrolidin-3-yl)-4-(trifluoromethoxy)butan-2-yl)pentanamide], which EC50 is on record?
The EC50 was less than 0.05 µM.

`O=C(NC(CC1CCOCC1)C(=O)N[C@@H](C[C@@H]1CCNC1=O)C(=O)COC(F)(F)F)C(=O)NC12CC(F)(C1)C2` (stereo partly drawn) [Compound 510, N1-(3-fluorobicyclo-[1.1.1]pentan-1-yl)-N2-(1-oxo-1-(((S)-3-oxo-1-((S)-2-oxopyrrolidin-3-yl)-4-(trifluoromethoxy)butan-2-yl)amino)-3-(tetrahydro-2H-pyran-4-yl)propan-2-yl)oxalamide] was tested. Which EC50 did it give?
Its EC50 is 0.2 to 0.5 µM.

With `CNC(=O)C(=O)N[C@@H](Cc1cccc(F)c1)C(=O)N[C@@H](C[C@@H]1CCNC1=O)C(=O)COC(F)(F)F` [Compound 677, N1-((S)-3-(3-fluorophenyl)-1-oxo-1-(((S)-3-oxo-1-((S)-2-oxopyrrolidin-3-yl)-4-(trifluoromethoxy)butan-2-yl)amino)propan-2-yl)-N2-methyloxalamide] as the compound, how does the EC50 read?
Its EC50 is less than 0.05 µM.

For `CC(C)(C)c1cccc(C(=O)N2CC3(CC3)C[C@H]2C(=O)N[C@@H](C[C@@H]2CCNC2=O)C(=O)COC(F)(F)F)c1` [Compound 458, (S)-5-(3-(tert-butyl)benzoyl)-N-((S)-3-oxo-1-((S)-2-oxopyrrolidin-3-yl)-4-(trifluoromethoxy)butan-2-yl)-5-azaspiro[2.4]heptane-6-carboxamide], which EC50 is on record?
The EC50 was less than 0.05 µM.

Which EC50 does the source give for `O=C(Nc1ccc(Cl)cc1F)C(=O)N1CC2(CC2)C[C@H]1C(=O)N[C@@H](C[C@@H]1CCNC1=O)C(=O)COC(F)(F)F` [Compound 591, (S)-5-(2-((4-chloro-2-fluorophenyl)amino)-2-oxoacetyl)-N-((S)-3-oxo-1-((S)-2-oxopyrrolidin-3-yl)-4-(trifluoromethoxy)butan-2-yl)-5-azaspiro[2.4]-heptane-6-carboxamide] here?
Its EC50 is less than 0.05 µM.

Which EC50 does the source give for `O=C(Nc1ccccc1C(F)(F)F)C(=O)N1CC2(CC2)C[C@H]1C(=O)N[C@@H](C[C@@H]1CCNC1=O)C(=O)COC(F)(F)F` [Compound 576, (S)-N-((S)-3-oxo-1-((S)-2-oxopyrrolidin-3-yl)-4-(trifluoromethoxy)butan-2-yl)-5-(2-oxo-2-((2-(trifluoromethyl)-phenyl)amino)acetyl)-5-azaspiro[2.4]-heptane-6-carboxamide] here?
Its EC50 is less than 0.05 µM.

For `O=C1NCC[C@H]1C[C@H](NC(=O)[C@@H]1[C@H]2CCC[C@H]2CN1C(=O)c1cc(C(F)F)on1)C(=O)COC(F)(F)F` [Compound 500, (1S,3aR,6aS)-2-(5-(difluoromethyl)-isoxazole-3-carbonyl)-N-((S)-3-oxo-1-((S)-2-oxopyrrolidin-3-yl)-4-(trifluoromethoxy)butan-2-yl)octahydrocyclo-penta[c]pyrrole-1-carboxamide], which EC50 is on record?
Its EC50 is less than 0.05 µM.

How did the EC50 turn out when `O=C1NCC[C@H]1C[C@H](NC(=O)[C@@H]1CC2(CC2)CN1C(=O)CC1CC(F)(F)C1)C(=O)COC(F)(F)F` [Compound 701, (S)-5-(2-(3,3-difluorocyclobutyl)acetyl)-N-((S)-3-oxo-1-((S)-2-oxopyrrolidin-3-yl)-4-(trifluoromethoxy)butan-2-yl)-5-azaspiro[2.4]heptane-6-carboxamide] was run?
Its EC50 is less than 0.05 µM.

For `[2H]C([2H])([2H])C([2H])([2H])C([2H])([2H])C([2H])([2H])C([2H])([2H])C(=O)N1CC2(CC2)C[C@H]1C(=O)N[C@@H](C[C@@H]1CCNC1=O)C(=O)COC(F)(F)F` [Compound 733, (S)-5-(hexanoyl-d 11)-N-((S)-3-oxo-1-((S)-2-oxopyrrolidin-3-yl)-4-(trifluoromethoxy)butan-2-yl)-5-azaspiro[2.4]heptane-6-carboxamide], which EC50 is on record?
Its EC50 is less than 0.05 µM.

With `CC(C)(C)NC(=O)C(=O)N1C[C@H]2[C@@H]([C@H]1C(=O)N[C@@H](C[C@@H]1CCNC1=O)C(=O)COC(F)(F)F)C21CC1` [Compound 553, (1R,2S,5S)-3-(2-(tert-butylamino)-2-oxoacetyl)-N-((S)-3-oxo-1-((S)-2-oxopyrrolidin-3-yl)-4-(trifluoromethoxy)butan-2-yl)-3-azaspiro-[bicyclo[3.1.0]hexane-6,1'-cyclopropane]-2-carboxamide] as the compound, how does the EC50 read?
Its EC50 is 0.05 to 0.2 µM.

With `CC(C)C(F)(F)C(=O)N1CC2(CC2)C[C@H]1C(=O)N[C@@H](C[C@@H]1CCNC1=O)C(=O)COC(F)(F)F` [Compound 714, (S)-5-(2,2-difluoro-3-methylbutanoyl)-N-((S)-3-oxo-1-((S)-2-oxopyrrolidin-3-yl)-4-(trifluoromethoxy)butan-2-yl)-5-azaspiro[2.4]heptane-6-carboxamide] as the compound, how does the EC50 read?
Its EC50 is less than 0.05 µM.

Same assay, conditions: Severe acute respiratory syndrome coronavirus 2, HeLa-ACE2, 24 h; read-out: EC50, uM (Hela)

Which EC50 does the source give for `CC(C)C[C@@H](OC(=O)Cc1ccccc1)C(=O)N1CC2(CC2)C[C@H]1C(=O)N[C@@H](C[C@@H]1CCNC1=O)C(=O)COC(F)(F)F` [Compound 632, (R)-4-methyl-1-oxo-1-((S)-6-(((S)-3-oxo-l-((S)-2-oxopyrrolidin-3-yl)-4-(trifluoromethoxy)butan-2-yl)carbamoyl)-5-azaspiro[2.4]heptan-5-yl)pentan-2-yl 2-phenylacetate] here?
The EC50 was less than 0.05 µM.
